Data on one substance can be found in patent US20220117879A1, “PHOTO-PROTECTIVE PLANT-DERIVED COMPOSITION” (Ariel Scientific Innovations Ltd., priority 2019, published 2022).

One data set concerns HaCaT cells. Nature of the data set: Wound closure in confluent HaCaT cell in vitro model. Type of data set: cell-based. The conditions noted are these: confluent HaCaT cells with induced wound, 24 hours (FIG. 16). As for the experimental part:
The effect of SH-401 on wound healing in skin was assessed using a confluent HaCaT cell in vitro model of wound closure.

In the next data set the test system is TNFα. The experiment in a line: UVB-induced TNFα hypersecretion in human skin explants, ELISA. The data set is classed as cell-based. The conditions noted are these: 24 hours after UVB 350 mJ/cm^2; 0.02-2 μg/cm^2; comparable to Ultrasol SPF 30 formulation (FIG. 8C). An excerpt: (§1) Skins were obtained with permission from 30-60 year-old healthy women undergoing aesthetic abdomen surgery, after signing an informed consent. A mechanical skin press was used to section the skin to 0.8×0.8 cm^2 pieces, according to procedures described in Portugal-Cohen et al. [Exp Dermatol 2011, 20:749-755]. The skin explants were maintained in an air/liquid interface, dermal side submerged in the medium, according to procedures described in Portugal-Cohen et al. [Exp Dermatol 2011, 20:749-755] and Cohen et al. [Dead Sea and Arava Studies 2015, 7:66-74]. The human skin explants were laid in 6-well culture plates containing DMEM (Dulbecco's modified Eagle medium) supplemented with 100 units/ml penicillin and 100 μg/ml streptomycin), dermal side down in the medium and epidermis up. All samples were used after an overnight recovery.

For data set [1], the system named is human skin explants. Nature of the data set: DNA fragmentation in epidermis cells of skin explants, COMET assay. Type of data set: cell-based. The conditions noted are these: UVB 350 mJ/cm^2, 2 μg/cm^2 (FIG. 12).
From the text: as §1

The subject of another data set is pro-collagen. The experiment in a line: Pro-collagen level in UVB-irradiated skin explants, ELISA. Type of data set: cell-based, human. The conditions noted are these: following UVB radiation (FIG. 15A).
From the text: as §1

The test system of data set [2] is human skin explants. Nature of the data set: UVB-induced apoptosis in epidermis of human skin explants, caspase-3 activation assay. The data set is classed as cell-based. The conditions noted are these: 24 hours after UVB 350 mJ/cm^2; 0.02-2 μg/cm^2; comparable to Ultrasol SPF 30 formulation (FIG. 8B).
From the text: as §1

The test system of data set [3] is human skin explants. The experiment in a line: Epidermal cell viability in human skin explants, MTT assay. The data set is classed as cell-based. The conditions noted are these: topical application, entire concentration range tested (up to maximal solubility) (FIG. 8A).
From the text: as §1
In order to investigate the safety and efficacy of the active compound SH-401 (isolated as described in Example 2), several experiments were performed on human skin explants, according to procedures described in the Materials and Methods section hereinabove.

For data set [4], the system named is human skin explants. Nature of the data set: UVB-induced ROS generation in skin explants, DCFDA assay. The data set is classed as cell-based. The conditions noted are these: 0.02-2 μg/cm^2, with UVB (FIG. 9).
From the text: as §1
(§2) A common feature of UVB-induced damage is the generation of ROS (reactive oxygen species), which increases DNA damage, amplifies the generation of lipid peroxidation and hampers proteins and membranes within the cells [Schuch et al., Free Rad Biol Med 2017, 107:110-124]. […] ROS generation upon UVB radiation was evaluated in skin explants both by DCFDA (dichlorofluorescin diacetate) assay, as well as by measuring lipid peroxidation (by ELISA), which is associated with ROS generation.

For data set [5], the system named is human skin explants. The experiment in a line: UVB-induced lipid peroxidation (MDA) in skin explants, ELISA. The data set is classed as cell-based. The conditions noted are these: 0.02-2 μg/cm^2, with UVB (FIG. 10).
From the text: as §1, §2
A general note: In an ELISA, binding on a coated surface is turned into a signal by an enzyme label.

Data set [6] concerns matrix metalloproteinase-1 (MMP1). Nature of the data set: MMP1 in UVB-irradiated skin explants, ELISA. The data set is classed as cell-based, human. The conditions noted are these: following UVB radiation (FIG. 15B).
From the text: as §1

Data set [7] has as its system human skin explants. The experiment in a line: Cyclobutane pyrimidine dimers (CPD) in epidermis cells from skin explants, ELISA. The data set is classed as cell-based. The conditions noted are these: UVB 350 mJ/cm^2, 0.01-2 μg/cm^2 (FIG. 13).
From the text: as §1

Data set [8] in a line: SPF (sun protection factor) calculated from UV absorption spectra with the Mansur equation. Type of data set: physicochemical. The conditions noted are these: 0.01 mg/ml. As for the experimental part:
Absorption spectra were used to calculate SPF (sun protection factor) values using the Mansur equation, according to procedures described by Dutra et al. [Braz J Pharma Sci 2004, 40:381-385], using OptLabTM X software ([…] order to investigate UVB blocking properties of various plants, a large-scale screening of traditionally-used herbs which grow in the Judean Desert was performed. The leaves, twigs, branches, fruits, and roots of each tested plant were collected, dried, ground and extracted separately in ethanol, water, chloroform or propylene glycol methyl ether acetate (PMA) using a Soxhlet system.

Data set [9] is described as follows: Photostability of SH-401 films on PMMA slides exposed to UV radiation, SPF versus time. The conditions noted are these: film on PMMA slide, 12 hours of exposure to UV radiation (FIG. 7). The data set is classed as physicochemical. As for the experimental part:
In order to evaluate photostability, uniform films of pure SH-401 were prepared on PMMA (polymethyl methacrylate) slides by depositing 2 ml of […] solution on the slides and evaporating the solvent. The samples were then exposed to UV radiation for various time intervals, ranging up to 25 hours. The glass plates were then immersed in a mixture of ethanol/water (2:98% v/v) and the films were dissolved ultrasonically. The UV samples were then quantified by UV-visible absorption spectroscopy and the SPF value was determined according to procedures described hereinabove and plotted as a function of time.

The nature of data set [10]: Antioxidant capacity by DPPH colour shift, Trolox equivalents. The conditions noted are these: 1 weight percent solution (FIG. 11). An excerpt:
Antioxidant capacity was further evaluated using the DPPH (diphenylpicrylhydrazyl) method. The color shift of DPPH in the presence of SH-401 and converted to units of Trolox (6-hydroxy-2,5,7,8-tetramethylchroman-2-carboxylic acid) equivalent antioxidant capacity based on a calibration curve.
For orientation: DPPH is a stable violet radical that fades when it is reduced.

In data set [11] the test system is human skin explants. The experiment in a line: Histological examination of UVB-irradiated skin explants. Type of data set: cell-based. The conditions noted are these: UVB 350 mJ/cm^2 (FIGS. 14A-14D).
From the text: as §1

Turning to “1,2,3,4,6-pentagalloyl-β-D-glucose [SH-401]”, in the data set with HaCaT cells, the wound closure result is given as “enhanced wound closure”. The “UVB-induced TNFα hypersecretion” value in the data set with TNFα was “attenuated”. In the data set with human skin explants [1], the “UVB-induced DNA damage (COMET)” value is reported as “attenuated”. Moreover, the “collagen synthesis (pro-collagen)” value in the data set on pro-collagen is “enhanced”. In the data set on human skin explants [2], the “UVB-induced apoptosis in the epidermis (caspase-3 activation)” value was “attenuated”. For the same substance, in the data set with human skin explants [3], the “skin viability (MTT)” value is “did not compromise skin viability”. Also, the “UVB-induced ROS generation (DCFDA)” value with human skin explants [4] is on record as “attenuated”. Further, the “UVB-induced lipid peroxidation (MDA)” value with human skin explants [5] was “attenuated”. For the same substance, in data set [6], the MMP1 activity entry is given as “reduced”. In addition, in the data set on human skin explants [7], the “UVB-induced formation of cyclobutane pyrimidine dimers (CPD)” value is “reduced”. In addition, in data set [8], the “increase of SPF value relative to the crude extract” value is on record as “more than 10 fold”. The “stability towards UV radiation (change in SPF value)” value in data set [9] is recorded as “essentially no change in SPF value”. Also, the “Trolox equivalent antioxidant capacity (DPPH)” value in data set [10] is “approximately 2,310 micromole Trolox equivalent (TE) units per 100 grams”. Besides, the “UVB-induced pyknotic sunburn cells and reduction of the epidermal layer (histology)” value in the data set on human skin explants [11] is “reversed this deleterious effect of the radiation”.
